# According to PubChem BioAssay (NCI):
# Values joined by “and” are separate entries in the source; they are usually repeats but may differ in a detail not shown here. Identical values can stand only once.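 In this assay, cells in 96-well plates receive the compound at five concentrations for 48 hours. Endpoints are linearly interpolated between the surrounding concentrations. Abbreviation: GI50, concentration required for 50% inhibition of growth. TGI: total growth inhibition.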 Where a SMILES comes first, the peptide text is derived from it. Bridges are numbered along the chain shown (N, C = ends).
# How the values were obtained:
# Test in all cases: NCI tumour cell line growth inhibition, 48 h
# HCT-15 colon = tested on: HCT-15 colon
# HL-60(TB) leukemia = tested on: HL-60(TB) leukemia
# HOP-62 NSCLC = tested on: HOP-62 NSCLC
# IGROV1 ovarian = tested on: IGROV1 ovarian
# K-562 leukemia = tested on: K-562 leukemia
# MALME-3M melanoma = tested on: MALME-3M melanoma
# MDA-N = tested on: MDA-N
# MOLT-4 leukemia = tested on: MOLT-4 leukemia
# SNB-19 CNS = tested on: SNB-19 CNS
# UACC-257 melanoma = tested on: UACC-257 melanoma
Compound,TGI (HCT-15 colon),TGI (HL-60(TB) leukemia),TGI (HOP-62 NSCLC),TGI (IGROV1 ovarian),TGI (K-562 leukemia),TGI (MALME-3M melanoma),TGI (MDA-N) [µM],TGI (MOLT-4 leukemia),TGI (SNB-19 CNS),TGI (UACC-257 melanoma),GI50 (HCT-15 colon),GI50 (HL-60(TB) leukemia),GI50 (HOP-62 NSCLC) [µM],GI50 (IGROV1 ovarian),GI50 (K-562 leukemia) [µM],GI50 (MALME-3M melanoma) [µM],GI50 (MOLT-4 leukemia) [µM],GI50 (SNB-19 CNS) [µM],GI50 (UACC-257 melanoma) [µM]
CC(Cl)(CCC(Cl)C(C)(C)Cl)C(=O)CBr (stereo not drawn),21.7 µM,> 100 µM,32.5 µM,26.7 µM,> 100 µM,24.8 µM,21.3,3.81 µM,> 85.5 µM,25.5 µM,–,–,–,–,–,–,–,–,–
COC(=O)[C@@H]1C=CCN1S(=O)(=O)c1ccc(C)cc1,> 100 µM,53.5 µM,> 100 µM,> 100 µM,> 100 µM,> 100 µM,> 100,> 100 µM,> 100 µM,> 100 µM,–,–,–,–,–,–,–,–,–
COc1ccc(C2C3=C(COC3=O)Oc3cc4c(cc32)OCO4)cc1OC (stereo not drawn),> 100 µM,0.804 µM,> 96.9 µM,> 100 µM,> 26.8 µM,> 100 µM,0.639,> 29.9 µM,> 100 µM,> 100 µM,–,–,–,–,–,–,–,–,–
COC(=O)CCCc1nc2ccccc2nc1N=Nc1ccccc1,> 100 µM,20.1 µM,> 100 µM,> 100 µM,58.2 µM,74.7 µM,> 100,26.3 µM,> 100 µM,> 100 µM,–,–,–,–,–,–,–,–,–
CN1CCC(O)(OC(=O)C(c2ccccc2)C2(O)CCCC2)CC1 (stereo not drawn),> 100 µM,> 100 µM,> 100 µM,> 100 µM,> 100 µM,> 100 µM,> 100,> 100 µM,> 100 µM,> 100 µM,–,–,–,–,–,–,–,–,–
Cc1cc(NS(=O)(=O)c2ccc(Nc3c4ccccc4nc4c(C(=O)NC(CO)(CO)CO)cccc34)cc2)no1,> 100 µM,> 100 µM,68.8 µM,> 100 µM,> 100 µM,92.2 µM,> 100,49 µM,> 100 µM,> 100 µM,–,–,–,–,–,–,–,–,–
O=C(NNC(=O)c1ccc(Cl)cc1NC(=O)C12CC3CC(CC(C3)C1)C2)c1ccc(Cl)cc1,35.9 µM,58.7 µM,44.4 µM,32.7 µM,> 100 µM,38.5 µM,55.9,60.6 µM,39.4 µM,66.1 µM,–,–,–,–,–,–,–,–,–
C(=Nc1ccc(-c2nc3ccccc3s2)cc1)c1cccs1,> 100 µM,0.0298 µM,> 100 µM,> 100 µM,> 100 µM,> 100 µM,> 100,> 100 µM,> 100 µM,> 100 µM,–,–,–,–,–,–,–,–,–
O=C(Oc1cncc(Cl)c1)c1cc2ccccc2sc1=O,> 100 µM,> 100 µM,> 100 µM,> 100 µM,> 100 µM,> 100 µM,> 100,90 µM,> 100 µM,> 100 µM,–,–,–,–,–,–,–,–,–
COc1ccc(/C=C/C(=O)c2cc(CN(C)C)c(O)c(CN(C)C)c2)cc1,> 100 µM,54.5 µM,56.1 µM,> 100 µM,70.7 µM,54.2 µM,67.1,> 100 µM,> 100 µM,38.8 µM,–,–,–,–,–,–,–,–,–
COC1(C)CCC(OS(C)(=O)=O)CO1 (stereo not drawn),> 100 µM,> 100 µM,> 100 µM,> 100 µM,> 100 µM,> 100 µM,> 100,> 100 µM,> 100 µM,> 100 µM,–,–,–,–,–,–,–,–,–
CC(C)=CC(=O)OC1C2C(C)=CC(=O)C(O)C2(C)C2C3(O)OCC24C(CC(=O)OC14)C(C)C3O (stereo not drawn),0.212 µM and 0.853 µM and 0.687 µM,–,0.0504 µM and 0.0103 µM and 0.0948 µM,–,0.0775 µM and 0.237 µM,0.0136 µM,0.00481,–,0.0303 µM and 0.0462 µM,0.0436 µM and 0.0432 µM,0.0579 µM and 0.0541 µM,0.02 µM,0.0315,0.02 µM,0.02,0.00475,0.02,0.0273,0.02
C[C@@H]([C@H]1CC[C@@]2(C)[C@@H]3CC[C@@H]4C(=CC3=CC[C@]12C)CC[C@H](N(C)C)C4(C)C)N(C)C,> 100 µM,> 100 µM,> 100 µM,> 100 µM,> 100 µM,> 100 µM,> 100,> 100 µM,> 100 µM,> 100 µM,–,–,–,–,–,–,–,–,–
COc1c(NC(C)=O)c2ccccc2c2ccccc12,> 100 µM,> 100 µM,> 100 µM,> 100 µM,> 100 µM,> 100 µM,> 100,> 100 µM,> 100 µM,> 100 µM,–,–,–,–,–,–,–,–,–
CCN(CC)CC[n+]1ccc2c(C)c3[nH]c4ccccc4c3c(C)c2c1,80.5 µM and 110 µM,3.7 µM and 0.464 µM and 0.743 µM,3.46 µM and 7.99 µM and 4.74 µM,3.45 µM and 11.2 µM and 5.33 µM,5.43 µM and 3.49 µM and 2.19 µM,1.92 µM and 2.27 µM and 1.15 µM,1.99,1.59 µM and 6.02 µM and 3.27 µM,1.41 µM and 1.48 µM and 1.33 µM,2.07 µM and 2.59 µM and 1.99 µM,–,0.402 µM and < 0.0437 µM,–,0.365 µM and 1.21 µM and 0.786 µM,0.1,0.374,0.274,0.251,0.633
O=C(NC1=C(Cl)C(=O)c2ccccc2C1=O)C(=O)c1c(O)c2ccccc2oc1=O,13.7 µM,29.1 µM,18.8 µM,16.1 µM,> 100 µM,2.7 µM,2.7,18 µM,16 µM,3.17 µM,–,–,–,–,–,–,–,–,–
Oc1ccc(Nc2nc(Cl)c3[nH]cnc3n2)cc1,> 100 µM,> 100 µM,> 100 µM,> 100 µM,> 100 µM,> 100 µM,> 100,> 100 µM,> 100 µM,> 100 µM,–,–,–,–,–,–,–,–,–
COc1ccc(Cn2c(=O)c(OS(=O)(=O)C(F)(F)F)c(C)c3cc4ccccc4cc32)cc1,> 100 µM,> 100 µM,> 100 µM,> 100 µM,> 100 µM,> 100 µM,> 100,> 100 µM,> 100 µM,> 100 µM,–,–,–,–,–,–,–,–,–
COC(=O)c1ccc(C)cc1C1CN=NC12Cc1cccc(C)c1C2=O (stereo not drawn),> 100 µM,49.8 µM,> 100 µM,> 100 µM,68.4 µM,96.6 µM,70.9,43.1 µM,> 100 µM,66 µM,–,–,–,–,–,–,–,–,–
COC(=O)C1CCC(=O)NCCCCC(NC(=O)C(N)CC(=O)O)C(=O)N1 (stereo not drawn) (H-Asp-Lys-Glu-OMe; lactam 2-3; configuration not given here),> 100 µM,> 100 µM,> 100 µM,> 100 µM,> 100 µM,> 100 µM,> 100,> 100 µM,> 100 µM,> 100 µM,–,–,–,–,–,–,–,–,–
O=[N+]([O-])/C(Cl)=C(\NCCO)C(Cl)=C(Cl)Cl,76.8 µM,11.4 µM,> 100 µM,> 100 µM,39.7 µM,65 µM,> 96.3,63.6 µM,> 100 µM,> 100 µM,–,–,–,–,–,–,–,–,–
O=C1CC(c2cccc([N+](=O)[O-])c2)C2(C(=O)NC(=S)NC2=O)C(c2cccc([N+](=O)[O-])c2)C1 (stereo not drawn),> 100 µM,> 100 µM,> 100 µM,> 100 µM,> 100 µM,53.2 µM,> 100,> 100 µM,58.8 µM,> 100 µM,–,–,–,–,–,–,–,–,–
CCOP(=O)(OCC)C(c1ccccc1)N(C(=O)NC(F)(F)F)c1ccc(C)cc1 (stereo not drawn),> 100 µM,> 100 µM,> 100 µM,> 100 µM,> 100 µM,> 100 µM,> 100,> 100 µM,> 100 µM,> 100 µM,–,–,–,–,–,–,–,–,–
O=C(CCC(NC(=O)OCc1ccccc1)C(=O)OCc1ccccc1)Nc1cccc(OCc2ccccc2)c1 (stereo not drawn),38.8 µM,37.6 µM,60.1 µM,71.1 µM,52.2 µM,56.4 µM,> 100,> 100 µM,> 100 µM,55 µM,–,–,–,–,–,–,–,–,–
C=CCN1C(=O)C[C@H](Cc2ccccc2)NC(=O)C[C@H](Cc2ccccc2)N(CC=C)C(=O)C[C@H](Cc2ccccc2)NC(=O)C[C@@H]1Cc1ccccc1,> 100 µM,9.37 µM,> 100 µM,> 100 µM,> 100 µM,50.6 µM,> 100,6.91 µM,> 100 µM,> 100 µM,–,–,–,–,–,–,–,–,–
